Results on one compound are retold here after paper PMC11363342 (ACS Central Science, 2024).

Series [1] concerns SARS-CoV-2 S protein. It counts as cell-based.
Series [2] relates to SARS-CoV-2. Nature of the series: Viral load reduction assay on H1299/ACE2 cells, extracellular viral RNA copies by RT-qPCR. It counts as cell-based.
Series [3] relates to GBA3. The note with it: cited from earlier work.
Series [4] concerns SARS-CoV-2 S protein. The format is cell-based. The source holds these as a separate data set.
In series [5] the test system is SARS-CoV-2. Nature of the series: Viral load reduction assay in Calu-3 cells, extracellular viral RNA copies by RT-qPCR. The note with it: Calu-3, MOI 1, 16 hpi. The format is cell-based. As for the experimental part: (§1) Cells were pretreated with 11 and infected with SARS-CoV-2 at a multiplicity of infection (MOI) of 1. At 16 h postinfection (hpi) supernatant was harvested to quantify the infectious virus titer by plaque assay and extracellular viral RNA copies by RT-qPCR. […] This is in line with the expected mechanism of action of the compound that involves viral (structural) protein maturation, likely resulting in reduced infectivity of progeny virus. We then calculated the specific infectivity (defined as the number of infectious particles per viral RNA copy) of treated and untreated samples for the data in Figure 3A,B (Figure 3C). […] None of the treatments caused noticeable cytotoxicity in uninfected treated cells (Figure 3B). Similarly, treatment of infected Calu-3 lung epithelial cells with 11 reduced infectious progeny virus titers by ∼10-fold, while no reduction in extracellular viral RNA copies was observed (Figure S3).
(§2) Figure S2: Cytopathic effect reduction assays on Vero E6 monkey kidney cells and H1299/ACE2 human lung epithelial cells. […]
(§3) plaque assay and RT-qPCR, respectively. Uninfected compound-treated cells were assessed by MTS assay in parallel to measure cytotoxicity of the compounds. n=3 independent experiments. […]

In series [6] the test system is SARS-CoV-2. The experiment in a line: Plaque reduction assay on H1299/ACE2 cells (time of treatment). It counts as cell-based. As for the experimental part:
To evaluate whether compound 11 has an effect on host proteins (for instance, ACE2) involved in viral entry, we treated monolayers of H1299/ACE2 cells with compound 11 either 48 or 2 h before infection, during infection (0–1 h), or starting from 1 h postinfection (hpi). The cell monolayers were infected with ∼20 PFU of SARS-CoV-2, and after 1 h the inoculum was replaced with an overlay. In one well (Post Infection) the overlay contained compound 11. Remdesivir, a viral RNA synthesis inhibitor, was added to the overlay of another well, as a positive control for blocking virus replication in the cell.
H1299/ACE2 cells were seeded in a 6-well plate at a density of 1.3 × 10^5 cells/well (20% confluency), 96 h prior to infection. […] The monolayers were infected with ∼20 PFU of SARS-CoV-2/Leiden0008. In the postinfection treatment, the compound (or RDV) was added to the Avicel overlay. Cells were incubated for 4 days at 37 °C before fixation and crystal violet staining.

Series [7] deals with SARS-CoV-2. The experiment in a line: CPE reduction assay on H1299/ACE2 lung epithelial cells. It counts as cell-based. The note with it: compared with Vero E6.
For series [8], the system named is MERS-CoV. It counts as cell-based. The following applies: HuH-7, MOI 1, 16 hpi, increasing concentrations.
Series [9] relates to recombinant Mus musculus α-Glu II. The experiment in a line: Thermal shift assay (SYPRO orange). The format is binding. The note with it: 10 μM Mmα-Glu-II with 50 μM inhibitor; unliganded control 49.9 °C.
The subject of series [10] is SARS-CoV-2. The experiment in a line: Viral load reduction assay in Calu-3 cells, infectious virus titer by plaque assay. It counts as cell-based. As for the experimental part: as §1, §2, §3
For series [11], the system named is SARS-CoV-2. Nature of the series: microbe, parasite or virus in culture. The note with it: Severe acute respiratory syndrome coronavirus 2, Vero C1008, Vero E6 cells, SARS-CoV-2/Leiden0002, n = 3, mean ± SEM; read-out: EC50 (μM), SARS-CoV-2 CPE reduction. It counts as cell-based.
In series [12] the target is GAA (Homo sapiens, UniProt P10253). Nature of the series: Competitive activity-based protein profiling with ABP 29 in ALI-PBEC lysate, GAA. The note with it: pH 7, 48 hpi. It counts as cell-based.
In series [13] the test system is GCS. On the set-up: method as in PMID 28776021. The note with it: cited from earlier work.
Series [14] is described as follows: in vitro. The following applies: African green monkey.

Consider `O=S1(=O)O[C@@H]2[C@H](O)[C@@H](O)[C@H](O)[C@@H](CO)[C@@H]2O1` [Compound 11, 1,6-epi-cyclophellitol cyclosulfate], for which, in [1], the “S protein in infected cells (immunofluorescence)” value is recorded as “reduction in the amount of S protein” and the syncytium formation result was “reduced syncytium formation”. Also, the “extracellular viral RNA copy numbers (in words)” value in series [2] is “only slightly reduced”. In addition, in [3], the “inhibition of GBA3” value was “does not inhibit”. In series [4], the “(processed) S2 in the medium” value is “strongly reduced”, the “full-length S protein in the cell lysate” value is “minor reduction” and the “∼90 kDa S2 fragment in the cell lysate” value is reported as “almost complete disappearance”. Further, the “extracellular viral RNA copies (in words)” value in [5] is on record as “no reduction”. In series [6] (H1299/ACE2, 5 μM, 48 or 2 h before or 0–1 h), the “plaque formation, pretreatment or treatment only during infection” value is “had no effect on the number of plaques that developed or their morphology”. In series [6] (H1299/ACE2, compound 11 at 5 μM), the “plaque formation, treatment after infection (in the overlay)” value is “prevented the formation of plaques”. For the same compound, the “EC50 values in CPE reduction assay (in words)” value in [7] is on record as “comparable EC50 values”. Besides, in series [8], the “infectious progeny of MERS-CoV (in words)” value is on record as “significant reduction of infectious progeny”. Moreover, in series [9], the “Tm/°C” value was 63.3 °C. In addition, in series [10] (Calu-3, 0.5–1.6 μM), the “reduction of infectious virus titers” value is on record as “up to 2 logs”. The “reduction of infectious progeny virus titers” value in series [10] (Calu-3, MOI 1, 16 hpi) was approximately 10 fold. Besides, in series [11], the half-maximal effective concentration (EC50) is 0.48 ± 0.1 µM. Moreover, the “in cellulo GAA inhibition by ABP 29 labeling (in words)” value in [12] is “most efficient in inhibiting ER α-Glu II and GAA at low concentrations”. In series [13], the “inhibition of GCS” value is recorded as “does not inhibit”. The compound further registered a CC50 at 3 days in [14] of more than 200000 nM.
